In brackets after ≈: the same amount, converted by molar mass. Where two headings read alike, the source gives them in different places.
How the values were obtained:
[1] = test system: Mycobacterium tuberculosis strain EH 4.0 (361.269); test: Test 4: MIC determination, resazurin fluorescence, strain EH 4.0; type: cell-based; conditions: Mycobacterium tuberculosis, read-out: pIC50, Test 4, M. tuberculosis strain EH 4.0 (361.269) (converted)
Procedure, shortened: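 M. tuberculosis EH 4.0 (361.269) from stationary-phase culture, ~5×10^5 CFU/well in 7H9 medium with compound dilutions. Incubated 7 days at 37 °C, then resazurin added; MIC from fluorescence.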

[2] = test system: Mycobacterium tuberculosis strain H37Rv; test: Test 1: MIC determination, resazurin fluorescence, M. tuberculosis H37Rv; type: cell-based; conditions: Mycobacterium tuberculosis, H37RV
[3] = test system: replicating and non-replicating bacteria; conditions: cited from earlier work
M. tuberculosis H37Rv = conditions: strain M. tuberculosis H37Rv, inside macrophages; cited from earlier work
[4] = Test 1, M. tuberculosis H37Rv, first test, read-out: pIC50 (converted)
[5] = Test 1, repeated (2nd) test, read-out: pIC50 * (converted)
[6] = Test 1, repeated (3rd) test, read-out: pIC50 ** (converted)

Row | Structure (SMILES) | IC50 [1] [nM] | melting point [°C] | also measured
1 | CCc1nc2ccc(Cl)cn2c1C(=O)NCc1ccc(N2CC3(C2)CN(c2ccc(OC(F)(F)F)cc2)C3)cc1 [Compound 4] | 5.01 | 184.57 | IC50 [2, 4]: 120 nM
2 | CCc1nc2ncc(Cl)cn2c1C(=O)NCc1ccc(N2CC3(C2)CN(c2ccc(OC(F)(F)F)cc2)C3)cc1 [Compound 5] | 31.6 | 242.43 | IC50 [2, 4]: 69.2 nM; IC50 [2, 5]: 74.1 nM; IC50 [2, 6]: 74.1 nM
3 | CCc1nc2sc(C)cn2c1C(=O)NCc1ccc(N2CC3(CCC3)C2)cc1 [Compound 12] | 31.6 | 300 | IC50 [2, 4]: 129 nM; IC50 [2, 5]: 70.8 nM; IC50 [2, 6]: 107 nM
4 | Cc1nn2ccccc2c1C(=O)NCC1CC2(CCN(c3ccc(OC(F)(F)F)cc3)CC2)C1 [Compound 140] | 1580 | 121.52 | 
5 | Cc1nn2ccccc2c1C(=O)NCc1ccc(C2CC3(C2)CN(c2ccc(OC(F)(F)F)cc2)C3)cc1 [Compound 141] | 31.6 | 158.48 | 
6 | Cc1nn2ccccc2c1C(=O)NCc1ccc(N2CC3(C2)CN(c2ccc(OC(F)(F)F)cc2)C3)cc1 [Compound 142] | 126 | 193.19 | 
7 | Cc1nn2ccccc2c1C(=O)NCc1ccc(N2CC3(CN(F)C3)C2)cc1 [Compound 143] | 398 | 130.31 | 
8 | CCc1nn2ccccc2c1C(=O)NCc1ccc(N2CC3(C2)CN(c2ccc(OC(F)(F)F)cc2)C3)cc1 [Compound 144] | 79.4 | 135.8 | 
9 | CCc1nn2c(Cl)cccc2c1C(=O)NCc1ccc(C2CC3(C2)CN(c2ccc(OC(F)(F)F)cc2)C3)cc1 [Compound 146] | 316 | 119.23 | 
10 | CCc1nn2c(OC)cccc2c1C(=O)NCc1ccc(C2CC3(C2)CN(c2ccc(OC(F)(F)F)cc2)C3)cc1 [Compound 147] | 1260 | 151.74 | 
11 | CCc1nc2ncc(Cl)cn2c1C(=O)NCc1ccc(N2CC3(C2)CC(F)(F)C3)cc1 [Compound 148] | 15.8 | 158.14 | 
12 | CCc1nc2ncc(Cl)cn2c1C(=O)NCc1ccc(N2CC3(CC(Oc4ccc(F)cc4)C3)C2)cc1 [Compound 152] | 15.8 | 350 | 
13 | CCc1nc2ncc(Cl)cn2c1C(=O)NCc1ccc(N2CCC3(CC2)CC(OC(F)(F)F)C3)cc1 [Compound 153] | 2 | 150.61 | 
14 | CCc1nc2c(F)cccn2c1C(=O)NCc1ccc(C2CC3(C2)CN(c2ccc(OC(F)(F)F)cc2)C3)cc1 [Compound 157] | 7940 | 144.55 | 
15 | CCc1nc2ccc(Cl)cn2c1C(=O)NCc1ccc(N2CC3(CC(c4ccnn4C)C3)C2)cc1 [Compound 158] | 398 | 101.95 | 
16 | CCc1nn2ccccc2c1C(=O)NCc1ccc(C2CC3(C2)CN(c2ccc(S(F)(F)(F)(F)F)cc2)C3)cc1 [Compound 159] | 39.8 | 177.08 | 
17 | Cc1nn2ccccc2c1C(=O)NCc1ccc(C2CC3(C2)CN(c2ccc(S(F)(F)(F)(F)F)cc2)C3)cc1 [Compound 160] | 31.6 | 166.29 | 
18 | CCc1nn2ccccc2c1C(=O)NCc1ccc(N2CC3(CC(c4ccc(OC(F)(F)F)cc4)C3)C2)cc1 [Compound 161] | 2510 | 126.57 | 
19 | Cc1nn2ccccc2c1C(=O)NCc1ccc(N2CC3(C2)CN(c2ccc(S(F)(F)(F)(F)F)cc2)C3)cc1 [Compound 162] | 7940 | 238.06 | 
20 | CCc1nc2ccc(Cl)cn2c1C(=O)NCc1ccc(N2CC3(CCC3)C2)cc1 [Compound 163] | 7940 | 142.39 | 
21 | CCc1nc2ccc(Cl)cn2c1C(=O)NCC1CC2(C1)CN(c1ccc(OC(F)(F)F)cc1)C2 [Compound 164] | 7940 | 165.12 | 
22 | CCc1nn2ccccc2c1C(=O)NCC1CC2(C1)CN(c1ccc(OC(F)(F)F)cc1)C2 [Compound 165] | 7940 | 150.69 | 
23 | CCc1nc2ccc(Cl)cn2c1C(=O)NCc1ccc(N2CCC(c3ccc(OC(F)(F)F)cc3)CC2)cc1 [Compound Q203, Q203] |  |  | activity against replicating and non-replicating bacteria [3]: highly active; MIC50 (M. tuberculosis H37Rv): 0.28 nM (≈ 0.156 ng/mL)

— patent publication US20190330189A1, “ANTIBACTERIAL COMPOUNDS” (Janssen Sciences Ireland UC, priority 2015, published 2019)
